This is an account of results in paper PMC8010095, “Discovery of novel antituberculosis agents among 3-phenyl-5-(1-phenyl-1H-[1,2,3]triazol-4-yl)-[1,2,4]oxadiazole derivatives targeting aminoacyl-tRNA synthetases” (Scientific Reports, 2021).

The subject of one test is moxifloxacin-resistant strain H37Rv (gyrA^D94K) (MOX3).
Assay: not given
It counts as cell-based, Mycobacterium tuberculosis.
Settings: not given
On to `COc1ccccc1-n1nnc(-c2nc(-c3ccc(F)cc3)no2)c1N` [Compound 26], for which the “Growth inhibition cutoff, H37Rv (gyrA^D94K)” value is recorded as greater than 20 mg/L.

For the molecule `Nc1c(-c2nc(-c3ccc(F)cc3)no2)nnn1-c1ccc(Br)cc1` [Compound 11], the “Growth inhibition cutoff, H37Rv (gyrA^D94K)” value is on record as greater than 20 mg/L.

`Cc1c(-c2nc(-c3ccccc3F)no2)nnn1-c1cc(F)ccc1F` [Compound 6]: the “Growth inhibition cutoff, H37Rv (gyrA^D94K)” value was greater than 20 mg/L.

On to `Nc1c(-c2nc(-c3ccc(Br)cc3)no2)nnn1-c1ccc(F)cc1` [Compound 32], for which the “Growth inhibition cutoff, H37Rv (gyrA^D94K)” value is given as greater than 20 mg/L.

Consider `Nc1c(-c2nc(-c3ccc(F)cc3)no2)nnn1-c1ccc(F)cc1F` [Compound 22], for which the “Growth inhibition cutoff, H37Rv (gyrA^D94K)” value is on record as greater than 20 mg/L.

Regarding `Nc1c(-c2nc(-c3ccc(F)cc3)no2)nnn1-c1cccc(C(F)(F)F)c1` [Compound 19], the “Growth inhibition cutoff, H37Rv (gyrA^D94K)” value is listed as greater than 20 mg/L.

On to `Nc1c(-c2nc(-c3ccc(F)cc3)no2)nnn1-c1ccccc1` [Compound 9], for which the “Growth inhibition cutoff, H37Rv (gyrA^D94K)” value was greater than 20 mg/L.

With `Nc1c(-c2nc(-c3ccccc3)no2)nnn1-c1ccccc1F` [Compound 1], the “Growth inhibition cutoff, H37Rv (gyrA^D94K)” value is on record as greater than 20 mg/L.

`COc1ccc(-n2nnc(-c3nc(-c4ccc(F)cc4)no3)c2N)cc1OC` [Compound 21]: the “Growth inhibition cutoff, H37Rv (gyrA^D94K)” value was greater than 20 mg/L.

With `COc1ccc(-n2nnc(-c3nc(-c4ccc(F)cc4)no3)c2N)cc1` [Compound 13], the “Growth inhibition cutoff, H37Rv (gyrA^D94K)” value is greater than 20 mg/L.

For `Nc1c(-c2nc(-c3ccc(F)cc3)no2)nnn1-c1cccc(Cl)c1` [Compound 16], the “Growth inhibition cutoff, H37Rv (gyrA^D94K)” value was greater than 20 mg/L.

As for `Nc1c(-c2nc(-c3ccc(F)cc3)no2)nnn1-c1cccc(F)c1` [Compound 15], the “Growth inhibition cutoff, H37Rv (gyrA^D94K)” value was greater than 20 mg/L.

Regarding `Nc1c(-c2nc(-c3ccc(F)cc3)no2)nnn1-c1ccccc1F` [Compound 23], the “Growth inhibition cutoff, H37Rv (gyrA^D94K)” value is on record as greater than 20 mg/L.

`CCOc1ccc(-c2noc(-c3nnn(-c4ccc(F)c(Cl)c4)c3N)n2)cc1` [Compound 41]: the “Growth inhibition cutoff, H37Rv (gyrA^D94K)” value is given as greater than 20 mg/L.

As for `Nc1c(-c2nc(-c3ccc(Cl)cc3)no2)nnn1-c1ccc(Br)cc1F` [Compound 31], the “Growth inhibition cutoff, H37Rv (gyrA^D94K)” value is greater than 20 mg/L.

The next test has as its system rifampin-resistant strain H37Rv (rpoB^S450L) (ATCC #35,838).
Assay: not given
It counts as cell-based, Mycobacterium tuberculosis.
Settings: not given
On to `COc1ccccc1-n1nnc(-c2nc(-c3ccc(F)cc3)no2)c1N` [Compound 26], for which the “Growth inhibition cutoff, H37Rv (rpoB^S450L)” value is recorded as greater than 20 mg/L.

Turning to `Nc1c(-c2nc(-c3ccc(F)cc3)no2)nnn1-c1ccc(Br)cc1` [Compound 11], the “Growth inhibition cutoff, H37Rv (rpoB^S450L)” value was greater than 20 mg/L.

As to `Cc1c(-c2nc(-c3ccccc3F)no2)nnn1-c1cc(F)ccc1F` [Compound 6], the “Growth inhibition cutoff, H37Rv (rpoB^S450L)” value is recorded as greater than 20 mg/L.

With `Nc1c(-c2nc(-c3ccc(Br)cc3)no2)nnn1-c1ccc(F)cc1` [Compound 32], the “Growth inhibition cutoff, H37Rv (rpoB^S450L)” value is listed as greater than 20 mg/L.

`Nc1c(-c2nc(-c3ccc(F)cc3)no2)nnn1-c1ccc(F)cc1F` [Compound 22]: the “Growth inhibition cutoff, H37Rv (rpoB^S450L)” value is on record as greater than 20 mg/L.

As to `Nc1c(-c2nc(-c3ccc(F)cc3)no2)nnn1-c1cccc(C(F)(F)F)c1` [Compound 19], the “Growth inhibition cutoff, H37Rv (rpoB^S450L)” value is reported as greater than 20 mg/L.

With `Nc1c(-c2nc(-c3ccc(F)cc3)no2)nnn1-c1ccccc1` [Compound 9], the “Growth inhibition cutoff, H37Rv (rpoB^S450L)” value is greater than 20 mg/L.

In the case of `Nc1c(-c2nc(-c3ccccc3)no2)nnn1-c1ccccc1F` [Compound 1], the “Growth inhibition cutoff, H37Rv (rpoB^S450L)” value was greater than 20 mg/L.

Consider `COc1ccc(-n2nnc(-c3nc(-c4ccc(F)cc4)no3)c2N)cc1OC` [Compound 21], for which the “Growth inhibition cutoff, H37Rv (rpoB^S450L)” value is greater than 20 mg/L.

For `COc1ccc(-n2nnc(-c3nc(-c4ccc(F)cc4)no3)c2N)cc1` [Compound 13], the “Growth inhibition cutoff, H37Rv (rpoB^S450L)” value is recorded as greater than 20 mg/L.

For `Nc1c(-c2nc(-c3ccc(F)cc3)no2)nnn1-c1cccc(Cl)c1` [Compound 16], the “Growth inhibition cutoff, H37Rv (rpoB^S450L)” value is on record as greater than 20 mg/L.

`Nc1c(-c2nc(-c3ccc(F)cc3)no2)nnn1-c1cccc(F)c1` [Compound 15]: the “Growth inhibition cutoff, H37Rv (rpoB^S450L)” value is greater than 20 mg/L.

Take `Nc1c(-c2nc(-c3ccc(F)cc3)no2)nnn1-c1ccccc1F` [Compound 23]: the “Growth inhibition cutoff, H37Rv (rpoB^S450L)” value was greater than 20 mg/L.

Consider `CCOc1ccc(-c2noc(-c3nnn(-c4ccc(F)c(Cl)c4)c3N)n2)cc1` [Compound 41], for which the “Growth inhibition cutoff, H37Rv (rpoB^S450L)” value is greater than 20 mg/L.

`Nc1c(-c2nc(-c3ccc(Cl)cc3)no2)nnn1-c1ccc(Br)cc1F` [Compound 31]: the “Growth inhibition cutoff, H37Rv (rpoB^S450L)” value is listed as greater than 20 mg/L.

The test system of another test is isoniazid-resistant H37Rv (katG^del) (MS015). The experiment in a line: microbe, parasite or virus in culture. It counts as cell-based. The following applies: > 80% reduction in growth; screened at 20, 2 and 0.2 mg/L; 7H9 complete medium.
With `COc1ccccc1-n1nnc(-c2nc(-c3ccc(F)cc3)no2)c1N` [Compound 26], the “Growth inhibition cutoff, H37Rv (katG^del)” value is greater than 20 mg/L.

For `Nc1c(-c2nc(-c3ccc(F)cc3)no2)nnn1-c1ccc(Br)cc1` [Compound 11], the “Growth inhibition cutoff, H37Rv (katG^del)” value is listed as greater than 20 mg/L.

For the molecule `Cc1c(-c2nc(-c3ccccc3F)no2)nnn1-c1cc(F)ccc1F` [Compound 6], the “Growth inhibition cutoff, H37Rv (katG^del)” value is greater than 20 mg/L.

In the case of `Nc1c(-c2nc(-c3ccc(Br)cc3)no2)nnn1-c1ccc(F)cc1` [Compound 32], the “Growth inhibition cutoff, H37Rv (katG^del)” value is greater than 20 mg/L.

Consider `Nc1c(-c2nc(-c3ccc(F)cc3)no2)nnn1-c1ccc(F)cc1F` [Compound 22], for which the “Growth inhibition cutoff, H37Rv (katG^del)” value is recorded as greater than 20 mg/L.

As to `Nc1c(-c2nc(-c3ccc(F)cc3)no2)nnn1-c1cccc(C(F)(F)F)c1` [Compound 19], the “Growth inhibition cutoff, H37Rv (katG^del)” value was greater than 20 mg/L.

Consider `Nc1c(-c2nc(-c3ccc(F)cc3)no2)nnn1-c1ccccc1` [Compound 9], for which the “Growth inhibition cutoff, H37Rv (katG^del)” value is greater than 20 mg/L.

Turning to `Nc1c(-c2nc(-c3ccccc3)no2)nnn1-c1ccccc1F` [Compound 1], the “Growth inhibition cutoff, H37Rv (katG^del)” value was greater than 20 mg/L.

With `COc1ccc(-n2nnc(-c3nc(-c4ccc(F)cc4)no3)c2N)cc1OC` [Compound 21], the “Growth inhibition cutoff, H37Rv (katG^del)” value is listed as greater than 20 mg/L.

In the case of `Nc1c(-c2nc(-c3ccc(F)cc3)no2)nnn1-c1cccc(Cl)c1` [Compound 16], the “Growth inhibition cutoff, H37Rv (katG^del)” value was greater than 20 mg/L.

`Nc1c(-c2nc(-c3ccc(F)cc3)no2)nnn1-c1cccc(F)c1` [Compound 15]: the “Growth inhibition cutoff, H37Rv (katG^del)” value is given as greater than 20 mg/L.

`Nc1c(-c2nc(-c3ccc(F)cc3)no2)nnn1-c1ccccc1F` [Compound 23]: the “Growth inhibition cutoff, H37Rv (katG^del)” value is on record as greater than 20 mg/L.

Turning to `CCOc1ccc(-c2noc(-c3nnn(-c4ccc(F)c(Cl)c4)c3N)n2)cc1` [Compound 41], the “Growth inhibition cutoff, H37Rv (katG^del)” value was greater than 20 mg/L.

Consider `Nc1c(-c2nc(-c3ccc(Cl)cc3)no2)nnn1-c1ccc(Br)cc1F` [Compound 31], for which the “Growth inhibition cutoff, H37Rv (katG^del)” value is on record as greater than 20 mg/L.

Still in this test, the particulars now being: Mycobacterium tuberculosis, H37RV; > 80% reduction in growth; screened at 20, 2 and 0.2 mg/L; 7H9 complete medium; read-out: Growth inhibition cutoff, H37Rv (katG^del).
For the molecule `COc1ccc(-n2nnc(-c3nc(-c4ccc(F)cc4)no3)c2N)cc1` [Compound 13], the MIC is greater than 20 µg/mL.
